The record followed here is ChEMBL document CHEMBL6182921, “Structural Optimization of Next-Generation TRK Inhibitors against Acquired Drug Resistance Mutations for the Treatment of Solid Tumors” (J Med Chem, 2025).

One may read the IC50 as the concentration at which inhibition is half-maximal. Usually inhibition stands for the drop in the measured response relative to a control, in per cent.

For experiment [1], the target named is High affinity nerve growth factor receptor (Homo sapiens, UniProt P04629).
Sequence of High affinity nerve growth factor receptor (P04629 whole entry): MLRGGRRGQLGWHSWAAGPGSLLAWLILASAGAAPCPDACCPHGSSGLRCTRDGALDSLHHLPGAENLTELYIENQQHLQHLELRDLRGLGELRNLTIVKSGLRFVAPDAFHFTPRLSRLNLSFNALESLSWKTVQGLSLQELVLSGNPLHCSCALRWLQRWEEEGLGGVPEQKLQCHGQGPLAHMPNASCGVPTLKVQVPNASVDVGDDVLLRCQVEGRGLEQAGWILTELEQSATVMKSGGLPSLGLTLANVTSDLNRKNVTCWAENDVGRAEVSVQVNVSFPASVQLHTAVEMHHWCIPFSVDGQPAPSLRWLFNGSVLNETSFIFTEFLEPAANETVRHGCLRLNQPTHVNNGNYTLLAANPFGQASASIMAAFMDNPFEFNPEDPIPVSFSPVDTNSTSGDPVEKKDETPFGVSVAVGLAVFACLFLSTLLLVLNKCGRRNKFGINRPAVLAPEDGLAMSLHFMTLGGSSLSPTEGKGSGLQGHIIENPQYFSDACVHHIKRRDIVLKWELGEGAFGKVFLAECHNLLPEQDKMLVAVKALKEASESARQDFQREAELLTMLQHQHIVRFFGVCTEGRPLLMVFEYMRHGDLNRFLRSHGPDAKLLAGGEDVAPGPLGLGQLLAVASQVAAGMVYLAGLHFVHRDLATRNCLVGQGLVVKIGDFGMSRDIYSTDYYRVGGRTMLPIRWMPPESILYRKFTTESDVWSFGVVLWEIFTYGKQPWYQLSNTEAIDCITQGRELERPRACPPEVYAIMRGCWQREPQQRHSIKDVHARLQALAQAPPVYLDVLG
Description: Inhibition of TRKA (unknown origin) incubated for 1 hr in presence of ATP by ELISA method
The test system of experiment [2] is BaF3. The experiment in a line: cells. The settings on record: Mus musculus, BaF3, 72 h.
Description: Antiproliferative activity against mouse BaF3 cells harbouring MPRIP-TRKA G667C mutant assessed as inhibition of cell growth measured after 72 hrs by CCK-8 method
In experiment [3] the test system is BaF3. Nature of the experiment: Antiproliferative activity against mouse BaF3 cells harbouring MPRIP-TRKA G595R mutant assessed as inhibition of cell growth measured after 72 hrs by CCK-8 method. In kind it is functional, cell-based. The settings on record: BaF3, 72 h.
In experiment [4] the test system is BaF3. The experiment in a line: Antiproliferative activity against mouse BaF3 cells harbouring MPRIP-TRKA G595R mutant assessed as inhibition of cell growth at 1000 nmol/L measured after 72 hrs by CCK-8 method relative to control. In kind it is functional. Background: Tetrazolium assays rely on reduction of a dye to a coloured formazan, in cell work by metabolically active cells.

The subject of experiment [5] is BaF3. The experiment in a line: cells. The settings on record: Mus musculus, BaF3, 72 h. This is another data set of the same source.
Description: Antiproliferative activity against mouse BaF3 cells harbouring xDFG (TRKA-G667C) mutation measured after 72 hrs by Cell-titer glo assay
Experiment [6] has as its system BaF3. In kind it is functional, cell-based. Particulars: Mus musculus.

Each structure is given as a SMILES string.

As to `CC1CN(Cc2ccc(NC(=O)c3cc(N4CCC[C@@H]4c4cc(F)ccc4F)c[nH]c3=O)cc2)CCN1S(=O)(=O)N1CCOCC1` (stereo not given in full), the concentration for half-maximal inhibition (IC50) in experiment [1] was 1.6 nM; in experiment [2], 112 nM; in experiment [3], greater than 1000 nM.

With `CCCN(CCC)Cc1ccc(NC(=O)c2cc(N3CCC[C@@H]3c3cc(F)ccc3F)c[nH]c2=O)cc1`, the IC50 in experiment [2] was found to be 184 nM. Moreover, the inhibition at 1 µM in experiment [4] worked out at 45.2%.

Regarding `C[C@H]1CNC(=O)c2cnn3ccc(nc23)N[C@H](C)c2cc(F)ccc2O1` [REPOTRECTINIB], the concentration for half-maximal inhibition (IC50) in experiment [5] was found to be 15 nM.

As to `C[C@@H]1CCc2ncc(F)cc2[C@H]2CCCN2c2ccn3ncc(c3n2)C(=O)N1` [SELITRECTINIB], the IC50 in experiment [2] was found to be 171 nM; in experiment [3], 37.9 nM; in experiment [5], 124 nM.

As for `C[C@@H](N)COc1ccc(-c2cnc3ccc(N[C@H](C)c4cccc(F)c4)nn23)cc1` [TALETRECTINIB], the half-maximal inhibitory concentration (IC50) in experiment [6] is 304 nM.
